In paper PMC11672294, “The Antipsychotic Drug Aripiprazole Suppresses Colorectal Cancer by Targeting LAMP2a to Induce RNH1/miR‐99a/mTOR‐Mediated Autophagy and Apoptosis” (Advanced Science, 2024):
Counter-ions that a name gives are not always drawn. Starred links: 1 amine or outer side, 2 acyl side, 3 side chain; linkers in the order of their positions; H or OH if unused. Positions of bridges follow the written chain, without caps; N, C: chain ends. Non-standard residues stand in square brackets, D forms with d. Residues, ends and D or L forms follow the SMILES beside them. *: point of attachment. pTerphenylCO(4''-OnC5H11) = CCCCCOc1ccc(-c2ccc(-c3ccc(C(=O)*)cc3)cc2)cc1; Orn(4R-OH,5R-OH) = O=C([C@H](C[C@@H](O)[C@@H](O)N[*:3])N[*:1])[*:2]; hTyr(3S-OH,4S-OH) = N[C@H](C(=O)O)[C@H](O)[C@@H](O)c1ccc(O)cc1; Pro(3S-OH,4S-Me) = C[C@H]1CN[C@H](C(=O)O)[C@H]1O; Hyp = O=C(O)[C@@H]1C[C@@H](O)CN1

tested on: HT29; details: 72 h, relative to DMSO, 10 µM, Relative cell viability (%)
How it was run: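 HT29 viability used WST-1 reduction (2 h, 37 °C, A450) after 72 h of treatment; screening compounds were tested singly at 10 µM, with dimethyl sulfoxide as the comparison.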

`CCN(C)C(=O)Oc1cccc([C@H](C)N(C)C)c1` [Rivastigmine] was tested, and the “Relative cell viability (%)” value was 88.03%.

same assay, conditions: 72 h, relative to DMSO; 10 µM

In order of rising “Relative cell viability (%)” value:
1. CN(C)CCN1C(=O)c2cccc3cc(N)cc(c23)C1=O [Amonafide]  8.879%
2. CC(C)(C)c1ccc(C(=O)CCCN2CCC(OC(c3ccccc3)c3ccccc3)CC2)cc1 [Ebastine]  13.94%
3. COc1cc(OC)c(C(=O)CCCN2CCCC2)c(OC)c1 [Buflomedil HCl]  34.47%
4. CCOc1cc(N)c(Cl)cc1C(=O)NCC1CN(Cc2ccc(F)cc2)CCO1 (stereo not drawn) [Mosapride Citrate]  38.47%
5. CN(C)[C@@H](CCOc1cccc2ccccc12)c1ccccc1 [Dapoxetine HCl]  44.92%
6. CN(C)c1nc(N(C)C)nc(N(C)C)n1 [Altretamine]  57.17%
7. COc1ccc2cccc(CCNC(C)=O)c2c1 [Agomelatine]  61.84%
8. CCCN(CCc1cccs1)[C@H]1CCc2c(O)cccc2C1 [Rotigotine]  62.12%
9. CCC[S+]([O-])c1ccc2[nH]c(NC(=O)OC)nc2c1 (stereo not drawn) [Albendazole Oxide]  65.25%
10. N=C(N)c1ccc2cc(OC(=O)c3ccc(N=C(N)N)cc3)ccc2c1 [Nafamostat Mesylate]  66.51%
11. CCCCCOc1ccc(-c2ccc(-c3ccc(C(=O)N[C@H]4C[C@@H](O)[C@@H](O)NC(=O)[C@@H]5[C@@H](O)[C@@H](C)CN5C(=O)[C@H]([C@@H](C)O)NC(=O)[C@H]([C@H](O)[C@@H](O)c5ccc(O)cc5)NC(=O)[C@@H]5C[C@@H](O)CN5C(=O)[C@H]([C@@H](C)O)NC4=O)cc3)cc2)cc1 [Anidulafungin (LY303366)] ({pTerphenylCO(4''-OnC5H11)}-[Orn(4R-OH,5R-OH)]T[Hyp][hTyr(3S-OH,4S-OH)]T[Pro(3S-OH,4S-Me)]; lactam 1-C)  71.21%
12. COc1ccc2c(c1)c(CC(=O)OCC(=O)O)c(C)n2C(=O)c1ccc(Cl)cc1 [Acemetacin]  81.07%
13. Nc1ccc(S(=O)(=O)Nc2ncccn2)cc1 [Sulfadiazine]  85.59%
14. CC(C)(C)NCC(O)COc1cccc2c1CCC(=O)N2 (stereo not drawn) [Carteolol HCl]  86.67%
15. NCCc1c[nH]c2ccc(O)cc12 [Serotonin HCl]  86.67%
16. CCc1cccc2c3c([nH]c12)C(CC)(CC(=O)O)OCC3 (stereo not drawn) [Etodolac]  86.76%
17. C[C@]12CCC(=O)C=C1[C@@H]1C[C@@H]1[C@H]1[C@@H]3[C@@H]4C[C@@H]4[C@@]4(CCC(=O)O4)[C@@]3(C)CC[C@@H]12 [Drospirenone]  86.76%
18. COc1ccc(C(=O)N2CCCC2=O)cc1 [Aniracetam]  91.43%
19. CC(=O)OCC(=O)NCCCOc1cccc(CN2CCCCC2)c1 [Roxatidine Acetate HCl]  111%
20. C[C@@H]1O[C@@H](OC[C@H]2O[C@@H](Oc3c(-c4ccc(O)c(O)c4)oc4cc(O)cc(O)c4c3=O)[C@H](O)[C@@H](O)[C@@H]2O)[C@H](O)[C@H](O)[C@H]1O [Rutin]  112%
21. COc1cc([C@@H]2c3cc4c(cc3[C@@H](O[C@@H]3O[C@@H]5CO[C@@H](C)O[C@H]5[C@H](O)[C@H]3O)[C@H]3COC(=O)[C@H]23)OCO4)cc(OC)c1O [Etoposide]  117.9%
22. C[C@H]1CNCCCN1S(=O)(=O)c1cccc2cncc(F)c12 [Ripasudil (K-115)]  118.8%
23. CC(C)OC(=O)[C@H](C)N[P@](=O)(OC[C@H]1O[C@@H](n2ccc(=O)[nH]c2=O)[C@](C)(F)[C@@H]1O)Oc1ccccc1 [Sofosbuvir (PSI-7977, GS-7977)]  121.8%
24. N[C@@H]1CN(c2c(F)cc3c(=O)c(C(=O)O)cn([C@@H]4C[C@@H]4F)c3c2Cl)CC12CC2 [Sitafloxacin Hydrate]  126.1%
25. C=CCc1cc(OC)c(O)c(C(=O)NCCO)c1 [Alibendol]  149.2%
26. C[C@H](CS)C(=O)N1CCC[C@H]1C(=O)O [Captopril]  243.5%
